# Legend:
# [1] = tested on: unidentified influenza virus; experiment: Potency to inhibit influenza virus (X-31) relative to alpha-C-allyl sialic acid; format: functional
# [2] = tested on: unidentified influenza virus; experiment: The compound was evaluated for the inhibition of influenza virus (X-31); format: functional, organism-based
Structure (SMILES),Relative potency [1],IC50 [2]
CO[C@]1(C(=O)O)C[C@H](O)[C@@H](NC(C)=O)[C@H]([C@@H](O)[C@H](O)CO)O1,2.5,4 mM
C=CC[C@@]1(C(=O)O)C[C@H](O)[C@@H](NC(C)=O)[C@H](C(O)C(O)CO)O1 (stereo partly specified),1,10 mM
C=CC[C@]1(C(=O)O)C[C@H](O)[C@@H](NC(C)=O)[C@H](C(O)C(O)CO)O1 (stereo partly specified),<0.02,> 50 mM

# From ChEMBL document CHEMBL1126096, “Carbohydrate materials bearing neuraminidase-resistant C-glycosides of sialic acid strongly inhibit the in vitro infectivity of influenza virus” (J Med Chem, 1992)
